The values that follow come from ChEMBL document CHEMBL2074226, “Molecular evidence of organic ion transporters in the rat adrenal cortex with adrenocorticotropin-regulated zonal expression” (Endocrinology, 2003).

This data set concerns the target T1, Solute carrier family 22 member 6 (Rattus norvegicus, UniProt O35956).
T1 sequence (O35956 whole entry): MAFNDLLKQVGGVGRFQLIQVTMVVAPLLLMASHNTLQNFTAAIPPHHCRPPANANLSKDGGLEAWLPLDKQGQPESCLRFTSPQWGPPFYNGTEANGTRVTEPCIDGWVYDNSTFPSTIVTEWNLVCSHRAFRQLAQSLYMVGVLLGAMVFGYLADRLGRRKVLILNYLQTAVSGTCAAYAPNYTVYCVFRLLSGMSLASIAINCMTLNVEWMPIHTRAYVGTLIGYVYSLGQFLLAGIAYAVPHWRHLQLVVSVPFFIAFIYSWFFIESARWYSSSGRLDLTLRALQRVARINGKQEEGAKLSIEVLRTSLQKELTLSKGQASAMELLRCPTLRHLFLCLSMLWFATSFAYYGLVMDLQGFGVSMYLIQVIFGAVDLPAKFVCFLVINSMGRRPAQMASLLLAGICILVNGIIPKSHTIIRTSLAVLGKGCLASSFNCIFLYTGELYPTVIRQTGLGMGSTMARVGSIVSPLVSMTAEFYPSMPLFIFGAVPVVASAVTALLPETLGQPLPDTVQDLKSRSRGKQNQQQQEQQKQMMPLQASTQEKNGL
Kind of data set: TP_TRANSPORTER: inhibition of PAH uptake (PAH: 10 uM, Corticosterone: 500 uM) in Xenopus laevis oocytes. Format: functional, cell-based. Particulars: oocyte.

For the molecule `C[C@]12C[C@H](O)[C@H]3[C@@H](CCC4=CC(=O)CC[C@@]43C)[C@@H]1CC[C@@H]2C(=O)CO` [CORTICOSTERONE], the Activity result is “inhibitor [(at a rough estimate) 25 % of control]”.
